For one data set, the system named is Rat Adjuvant Arthritis. Nature of the data set: Effects on Rat Adjuvant Arthritis. As to conditions: 336 h, Lewis rats, 50 mg/kg once a day for 14 days; for change in vivo at 50 mg/kg: based on drug-unadministered rats, read-out: Increase rate of body weight (%); for inhibition in vivo at 50 mg/kg: left hind leg, 14th day, read-out: Swelling inhibitory rate (%). It counts as in vivo.

Data set [1] has as its system Rat Carrageenin Paw Edema. Nature of the data set: Rat Carrageenin Paw Edema Inhibitory Activity. As to conditions: Jcl:SD rats, 50 mg/kg orally, 3 hours after carrageenin. It counts as in vivo. As for the experimental part:
Rat Carrageenin Paw Edema Inhibitory Activity
The volume of a planter part of a right hind leg of Jcl:SD rats (male, 6 weeks old) was measured, and then suspension of a test drug (50 mg/kg) in 5% acacia was administered orally. Then water was administered additionally so that the total amount of administered liquid became 5 ml/rat. After 1 hour, a suspension (0.05 ml) containing 1% carrageenin in physiological saline was injected intradermally into the plantar to induce swelling [Winter, C. A. et al; Proc. Soc. Exp. Biol. Med., 111, 544 (1962)]. The volume of the right hind leg was measured again 3 hours after the carrageenin injection, and swelling inhibitory rate was calculated from the difference in the volumes before and after the injection.

Data set [2] has as its system mouse phenylquinone writhing. Nature of the data set: Analgesic Activity in Mice (phenylquinone writhing model). It counts as in vivo. As to conditions: Slc:ICR mice, 50 mg/kg orally, 20 minutes. As for the experimental part:
Analgesic Activity in Mice
A drug (50 mg/kg) suspended in 5% acacia was administered orally to Slc:ICR mice (male, 4 weeks old). After 30 minutes, a 0.02% phenylquinone solution (0.1 ml/[…]) in 5% ethanol was administered intraperitoneally. Writhing and stretching reactions for 20 minutes after the injection were calculated for each mouse to evaluate analgesic activity of the test drug [Siegmund, E. et al.; Proc. Soc. Exp. Biol. Med., 95, 729 (1957)].

In a further data set the test system is IL-1β. Briefly: Anti-IL-1 activity (extracellular substrates of rat cartilage cells). As to conditions: 72 h, IL-1β 0.2 ng/ml, 3 days, read-out: IL-1 inhibitory activity (%). It counts as cell-based. As for the experimental part:
Rat cartilage cells were prepared according to the known method [Fujio Suzuki et al., Sin Seikagaku Jikken Kohza, 18, p.871-875 (1990)] and cultivated in Dulbecco's Medium containing 10% fetal bovine serum. After 8 days, various concentrations of a test drug and IL-1β (0.2 ng/ml) were added, and the cells were cultivated for additional 3 days. The amount of extracellular substrates thus produced was determined.
Although IL-1β inhibits the synthesis of extracellular substrates of cartilage cells, addition of the drug inhibits the IL-1 activity and the amount of extracellular substrates synthesized was recovered.

Data set [3] deals with Antigen-responsive T cell. Nature of the data set: Antigen-Responsive T Cell Growth Inhibitory Activity (PPD-stimulated 3H-Tdr incorporation). As to conditions: PPD 2 μg/ml, Lewis rat T cells, read-out: Antigen-responsive T cell growth inhibitory rate (%). It counts as cell-based, Lewis rats. As for the experimental part:
Antigen-Responsive T Cell Growth Inhibitory Activity
According to the method of Test Example 1, adjuvant arthritis was induced in Lewis rats (male, 7 weeks old). After 14 days, lymphonodi inguinales were excised. Then, a single-cell suspension was prepared by using RPMI-1640 medium containing 5% fetal bovine serum and then incubated at 37° C. for 1 hour in a nylon wool column. The cells were eluted from the column with the same medium. The non-adsorptive cell-fraction was used as T cells.
On the other hand, spleen cells were taken out from unsensitized Lewis rats (male, 8 to 9 weeks old) and irradiated with soft X-rays (20,000 R). To the spleen cells (1×10^5 cells/well) were added the above T cells (5×10^5 cells/well), PPD (Purified Protein Derivatives; final concentration: 2 μg/ml) and 2% Lewis rat serum (treated at 56° C. for 30 minutes). The mixture was incubated at 37° C. for 72 hours in a 5% carbonic acid incubator. Further, ^3 H-Tdr (0.5 μCi/well) was added followed by incubation for 24 hours. The cells were recovered, and the radioactivity of ^3 H-Tdr incorporated into the cells was determined. The test drug was added to the cell suspension just before the addition of PPD, and effects on incorporation of ^3 H-Tdr into the cells were observed.

The subject of another data set is mice. Nature of the data set: Oral toxicity in mice. It counts as in vivo. As to conditions: 300 mg/kg administered orally to mice. As for the experimental part: The compounds of the present invention have low toxicity. For example, when 300 mg/kg of the compounds prepared in Examples 36, 45, 47, 54 and 64 were administered orally to mice, no mice died. Therefore, the compounds of the present invention are useful as an anti-inflammatory agent, particularly an agent for treating arthritis producing inflammatory symptoms, in humans and other mammals.

`CCOC(=O)c1c(C[S+]([O-])c2nccn2C)nc2cc(OC)c(OC)cc2c1-c1ccc(OC)c(OC)c1` (stereo not shown) [Example 2, ethyl 6,7-dimethoxy-4-(3,4-dimethoxyphenyl)-2-[(1-methylimidazol-2-yl)sulfinylmethyl]quinoline-3-carboxylate]: in the data set with Rat Adjuvant Arthritis, the change in vivo at 50 mg/kg was determined as 39% and the inhibition in vivo at 50 mg/kg was determined as 73%.
On to `CCOC(=O)c1c(C[S+]([O-])c2nc3ccccc3[nH]2)nc2cc(OC)c(OC)cc2c1-c1ccc(OC)c(OC)c1` (stereo not shown) [Example 3, ethyl 2-[(2-benzimidazolyl)sulfinylmethyl]-6,7-dimethoxy-4-(3,4-dimethoxyphenyl)quinoline-3-carboxylate], for which the “Swelling inhibitory rate (%)” value in data set [1] is given as 23%.
As to `CCOC(=O)c1c(CSc2nc3ccccc3[nH]2)nc2cc(OC)c(OC)cc2c1-c1ccc(OC)cc1` [Example 27, ethyl 6,7-dimethoxy-4-(4-methoxyphenyl)-2-[(benzimidazol-2-yl)thiomethyl]quinoline-3-carboxylate], the “Inhibitory rate (%)” value in data set [2] amounted to 39%.
As for `CCOC(=O)c1c(CSc2nccn2C)nc2cc(OC)c(OC)cc2c1-c1ccc(OC)cc1` [Example 28, ethyl 6,7-dimethoxy-4-(4-methoxyphenyl)-2-[(1-methylimidazol-2-yl)thiomethyl]quinoline-3-carboxylate], in data set [2], the “Inhibitory rate (%)” value was 43%. Moreover, in the data set with IL-1β, the inhibition at 1 µM is 34% and the inhibition at 10 µM is 44%.
With `CCOC(=O)c1c(CSc2nccn2C)nc2cc(OC)c(OC)cc2c1-c1ccc(C)cc1` [Example 33, ethyl 6,7-dimethoxy-4-(4-methylphenyl)-2-[(1-methylimidazol-2-yl)thiomethyl]quinoline-3-carboxylate], in the data set on Rat Adjuvant Arthritis, the change in vivo at 50 mg/kg is 12% and the inhibition in vivo at 50 mg/kg is 67%.
As for `CCOC(=O)c1c(CSc2nncn2C)nc2cc(OC)c(OC)cc2c1-c1ccc(OC)c(OC)c1` [Example 35, ethyl 6,7-dimethoxy-4-(3,4-dimethoxyphenyl)-2-[(4-methyl-1,2,4-triazol-3-yl)thiomethyl]quinoline-3-carboxylate], in the data set with Rat Adjuvant Arthritis, the change in vivo at 50 mg/kg worked out at 11% and the inhibition in vivo at 50 mg/kg was 64%.
Regarding `CCOC(=O)c1c(CSc2nccn2C)nc2cc(OC)c(OC)cc2c1-c1ccc(OC)c(OC)c1` [Example 36, ethyl 6,7-dimethoxy-4-(3,4-dimethoxyphenyl)-2-[(1-methylimidazol-2-yl)thiomethyl]quinoline-3-carboxylate], in data set [3], the inhibition at 1 µM was determined as 33% and the inhibition at 10 µM was 79%. For the same molecule, the mortality entry in the data set with mice is “no mice died”. Also, in data set [2], the “Inhibitory rate (%)” value came to 59%. Besides, in the data set with Rat Adjuvant Arthritis, the change in vivo at 50 mg/kg stood at 30% and the inhibition in vivo at 50 mg/kg came out at 48%. For the same molecule, in the data set with IL-1β, the inhibition at 1 µM is 22% and the inhibition at 10 µM was 48%.
`CCOC(=O)c1c(CSCc2ccc(Cl)cc2)nc2cc(OC)c(OC)cc2c1-c1ccc(OC)c(OC)c1` [Example 41, ethyl 6,7-dimethoxy-4-(3,4-dimethoxyphenyl)-2-[(4-chlorophenyl)methylthiomethyl]quinoline-3-carboxylate]: in the data set on IL-1β, the inhibition at 1 µM was 17% and the inhibition at 10 µM was 50%.
Regarding `CCOC(=O)c1c(CSc2ccc(Cl)cc2)nc2cc(OC)c(OC)cc2c1-c1ccc(OC)c(OC)c1` [Example 42, ethyl 6,7-dimethoxy-4-(3,4-dimethoxyphenyl)-2-[(4-chlorophenyl)thiomethyl]quinoline-3-carboxylate], the “Inhibitory rate (%)” value in data set [2] is listed as 47%.
Consider `CCOC(=O)c1c(CSc2nccc(=O)[nH]2)nc2cc(OC)c(OC)cc2c1-c1ccc(OC)c(OC)c1` [Example 45, ethyl 6,7-dimethoxy-4-(3,4-dimethoxyphenyl)-2-[(6(1H)-pyrimidon-2-yl)thiomethyl]quinoline-3-carboxylate], for which, in data set [3], the inhibition at 1 µM turned out to be 36% and the inhibition at 10 µM stood at 70%. Besides, the mortality result in the data set on mice is listed as “no mice died”.
Turning to `CCOC(=O)c1c(CSc2ncccc2O)nc2cc(OC)c(OC)cc2c1-c1ccc(OC)c(OC)c1` [Example 46, ethyl 6,7-dimethoxy-4-(3,4-dimethoxyphenyl)-2-[(3-hydroxypyridin-2-yl)thiomethyl]quinoline-3-carboxylate], in data set [3], the inhibition at 1 µM was found to be 39% and the inhibition at 10 µM was 92%.
Regarding `CCOC(=O)c1c(CSC2=NCCS2)nc2cc(OC)c(OC)cc2c1-c1ccc(OC)c(OC)c1` [Example 47, ethyl 6,7-dimethoxy-4-(3,4-dimethoxyphenyl)-2-[(2-thiazolin-2-yl)thiomethyl]quinoline-3-carboxylate], in data set [3], the inhibition at 1 µM was 61% and the inhibition at 10 µM was 93%. The mortality entry in the data set on mice is on record as “no mice died”.
For `CCOC(=O)c1c(CSc2nc3ccccc3[nH]2)nc2cc(OC)c(OC)cc2c1-c1ccc(OC)c(OC)c1` [Example 53, ethyl 6,7-dimethoxy-4-(3,4-dimethoxyphenyl)-2-[(benzimidazol-2-yl)thiomethyl]quinoline-3-carboxylate], the inhibition at 1 µM in data set [3] is 51%; with IL-1β it was 39%. For the same molecule, the inhibition at 10 µM was found to be 91% in data set [3] and 71% in the data set on IL-1β.
Regarding `CCOC(=O)c1c(CSc2nnc3ccccn23)nc2cc(OC)c(OC)cc2c1-c1ccc(OC)c(OC)c1` [Example 66, ethyl 6,7-dimethoxy-4-(3,4-dimethoxyphenyl)-2-[(pyrido[1,2-a][1,3,4]triazol-5-yl)thiomethyl]quinoline-3-carboxylate], the “Inhibitory rate (%)” value in data set [2] is listed as 58%.
`CCOC(=O)c1c(CSc2nccn2C)nc2cc(OC)c(OC)cc2c1-c1ccc2c(c1)OCO2` [Example 69, ethyl 6,7-dimethoxy-4-(3,4-methylenedioxyphenyl)-2-[(1-methylimidazol-2-yl)thiomethyl]quinoline-3-carboxylate]: in the data set with Rat Adjuvant Arthritis, the change in vivo at 50 mg/kg was determined as 17% and the inhibition in vivo at 50 mg/kg came out at 63%.
As for `CCOC(=O)c1c(CSc2nccn2C)nc2cc(OCC)c(OCC)cc2c1-c1ccc(OC)c(OC)c1` [Example 72, ethyl 6,7-diethoxy-4-(3,4-dimethoxyphenyl)-2-[(1-methylimidazol-2-yl)thiomethyl]quinoline-3-carboxylate], in the data set on Rat Adjuvant Arthritis, the change in vivo at 50 mg/kg is 27% and the inhibition in vivo at 50 mg/kg came out at 50%.
As for `CCOC(=O)c1c(CCc2nccn2C)nc2cc(OC)c(OC)cc2c1-c1ccc(OC)c(OC)c1` [Example 87, ethyl 6,7-dimethoxy-4-(3,4-dimethoxyphenyl)-2-[2-(1-methylimidazol-2-yl)ethyl]quinoline-3-carboxylate], in the data set with Rat Adjuvant Arthritis, the change in vivo at 50 mg/kg turned out to be 27% and the inhibition in vivo at 50 mg/kg worked out at 75%.
As to `COc1ccc(-c2nc(CCc3nccn3C)nc3cc(OC)c(OC)cc23)cc1OC` [Example 88, 6,7-dimethoxy-4-(3,4-dimethoxyphenyl)-2-[2-(1-methylimidazol-2-yl)ethyl]quinazoline], in the data set on Rat Adjuvant Arthritis, the change in vivo at 50 mg/kg is 24% and the inhibition in vivo at 50 mg/kg is 62%.

Values taken from patent US5948782A, “Pharmaceutical composition containing quinoline and quinazoline derivatives and novel compounds therefor” (Takeda Chemical, priority 1992, dated 1999).
